Test [1] has as its target Neuronal acetylcholine receptor; alpha3/beta4 (Rattus norvegicus, UniProt P04757+P12392). Put plainly: Antagonist activity at rat alpha3beta4 nACHR expressed in xenopous laevis oocyte assessed as inhibition of ACh induced channel current at -70 mV holding potential by two electrode voltage clamp method. Background: In two-electrode clamp one electrode senses voltage and the other passes current.

For test [2], the target named is Nicotinic acetylcholine receptor alpha6/alpha3/beta4 (Rattus norvegicus, UniProt P04757+P12392+P43143). Description: Antagonist activity at rat alpha6/alpha3beta4 nACHR expressed in xenopous laevis oocyte assessed as inhibition of ACh induced channel current at -70 mV holding potential by two electrode voltage clamp method.
The species named for a further test is Rattus norvegicus. Put plainly: Selectivity ratio of IC50 for rat alpha6/alpha3beta4 nACHR expressed in xenopous laevis oocyte at -70 mV holding potential to IC50 for rat alpha3beta4 nACHR expressed in xenopous laevis oocyte at -70 mV holding potential.

This note sets out measurements from ChEMBL document CHEMBL4011630 (J Med Chem, 2017).

The structures appear in SMILES notation.

Sequence of Nicotinic acetylcholine receptor alpha6/alpha3/beta4 (P04757 whole entry): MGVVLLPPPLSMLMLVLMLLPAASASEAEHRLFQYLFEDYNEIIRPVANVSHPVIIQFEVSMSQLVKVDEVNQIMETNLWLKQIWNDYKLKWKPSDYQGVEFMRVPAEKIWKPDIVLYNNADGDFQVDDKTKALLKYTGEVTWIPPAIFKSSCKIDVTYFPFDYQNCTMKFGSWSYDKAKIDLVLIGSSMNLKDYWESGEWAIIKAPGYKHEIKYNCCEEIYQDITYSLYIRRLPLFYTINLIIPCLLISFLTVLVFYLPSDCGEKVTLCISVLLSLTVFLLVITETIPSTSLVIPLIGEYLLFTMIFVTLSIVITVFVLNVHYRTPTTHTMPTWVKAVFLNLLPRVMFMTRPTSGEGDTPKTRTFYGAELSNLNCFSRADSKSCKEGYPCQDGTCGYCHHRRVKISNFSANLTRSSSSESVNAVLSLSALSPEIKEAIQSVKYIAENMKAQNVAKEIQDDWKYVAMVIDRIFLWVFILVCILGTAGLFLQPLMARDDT
Sequence of Nicotinic acetylcholine receptor alpha6/alpha3/beta4 (P12392 whole entry): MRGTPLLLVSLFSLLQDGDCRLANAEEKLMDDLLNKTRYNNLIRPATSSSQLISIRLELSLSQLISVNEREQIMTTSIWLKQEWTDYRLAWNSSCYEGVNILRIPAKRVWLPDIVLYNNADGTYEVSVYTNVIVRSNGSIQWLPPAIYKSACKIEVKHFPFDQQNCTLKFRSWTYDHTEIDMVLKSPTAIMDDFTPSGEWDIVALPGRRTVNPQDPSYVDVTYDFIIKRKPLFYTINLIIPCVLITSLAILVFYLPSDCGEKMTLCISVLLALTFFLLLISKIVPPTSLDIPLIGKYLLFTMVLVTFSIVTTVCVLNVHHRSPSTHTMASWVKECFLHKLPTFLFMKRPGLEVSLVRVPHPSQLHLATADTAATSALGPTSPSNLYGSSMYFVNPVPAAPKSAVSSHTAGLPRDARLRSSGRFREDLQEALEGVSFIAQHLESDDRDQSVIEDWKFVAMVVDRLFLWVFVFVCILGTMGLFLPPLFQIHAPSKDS
Sequence of Nicotinic acetylcholine receptor alpha6/alpha3/beta4 (P43143 whole entry): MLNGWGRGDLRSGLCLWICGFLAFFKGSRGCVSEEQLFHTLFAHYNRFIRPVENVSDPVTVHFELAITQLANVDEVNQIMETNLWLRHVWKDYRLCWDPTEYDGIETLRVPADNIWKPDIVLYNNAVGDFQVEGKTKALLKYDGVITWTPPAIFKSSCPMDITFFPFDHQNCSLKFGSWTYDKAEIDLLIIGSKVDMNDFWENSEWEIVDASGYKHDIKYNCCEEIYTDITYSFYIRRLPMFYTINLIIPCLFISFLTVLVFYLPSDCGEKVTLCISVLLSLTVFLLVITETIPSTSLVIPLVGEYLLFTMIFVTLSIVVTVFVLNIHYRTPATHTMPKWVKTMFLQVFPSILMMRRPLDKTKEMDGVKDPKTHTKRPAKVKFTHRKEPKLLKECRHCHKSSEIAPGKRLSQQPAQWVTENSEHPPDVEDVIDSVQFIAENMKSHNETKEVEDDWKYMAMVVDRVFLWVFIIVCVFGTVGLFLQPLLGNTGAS
Sequence of Neuronal acetylcholine receptor; alpha3/beta4 (P04757 whole entry): as the sequence (P04757 whole entry) above
Sequence of Neuronal acetylcholine receptor; alpha3/beta4 (P12392 whole entry): as the sequence (P12392 whole entry) above

`CC(C)C[C@@H]1NC(=O)[C@H](C(C)C)NC(=O)[C@H](C)NC(=O)[C@@H]2CSSC[C@H](NC(=O)CN)C(=O)N[C@@H](CSSC[C@H](C(N)=O)NC(=O)[C@H](Cc3ccc(O)cc3)NC1=O)C(=O)N[C@@H](CO)C(=O)N[C@@H]([C@@H](C)O)C(=O)N1CCC[C@H]1C(=O)N1CCC[C@H]1C(=O)N2`: the results for the IC50 in test [1] and in test [2] were 27.7 nM and 1.54 nM, respectively. For the same compound, in the test filed under Rattus norvegicus, the Ratio IC50 amounted to 0.056.

As usually defined, the IC50 is the concentration that gives 50% inhibition.
